Results published in patent publication US12415799B2, “Indazole-fused cyclic compound” (Zhejiang Yangli Pharmaceutical Technology Co., Ltd., priority 2020, dated 2025).
pIC50: −log10 of the molar value. Read-outs that look alike come from different tables or passages of the source.

Experiments:
CYP1A2 = CYP1A2 (Homo sapiens (Human), UniProt P05177); assay type: in vitro ADME; details: microsomes
Method: Experimental purposes: To test the inhibitory effect of test compound on the activity of human liver microsomal cytochrome P450 isoenzymes (CYP1A2 and CYP3A4) (Corning, Co., Ltd.).
Experimental operation: Firstly, the test compound (10 mM) was subjected to gradient dilution to prepare a working solution (100×final concentration), and the concentration of the working solution was: 5, 1.5, 0.5, 0.15, 0.05, 0.015 and 0.005 mM, respectively, and the working solution of each positive inhibitor of P450 isoenzyme (CYP1A2 and CYP3A4) and its specific substrate mixture (5 in 1) were prepared; and then the human liver microsomes frozen in the −80° C. refrigerator were thawed on ice, and all the human liver microsomes were dissolved, diluted with PB, and a certain concentration of working solution (0.253 mg/mL) was prepared; 20 μL of substrate mixture was added to the reaction plate (20 μL of PB was added to the blank well), while 158 μL of human liver microsomal working solution was added to the reaction plate, and the reaction plate was placed on ice for later use; at this time, 2 μL of various concentrations of the test compound (N=1) and specific inhibitor (N=2) were added to the corresponding well, and the corresponding organic solvent was added to the non-inhibitor (test compound or positive inhibitor) group as a control group sample (a ratio of DMSO:MeOH in the test compound control sample was 1:1, a ratio of DMSO:MeOH in the positive control sample was 1:9); after pre-incubation in a water bath at 37° C. for 10 min, 20 μL of coenzyme factor (NADPH) solution was added to the reaction plate, and incubated in a water bath at 37° C. for 10 min; and 400 μL of cold acetonitrile solution (internal standard was 200 ng/mL tolbutamide and labetalol) was added to terminate the reaction; the reaction plate was placed on a shaker and shaked for 10 minutes; and then centrifuged at 4,000 rpm for 20 minutes; 200 μL of the supernatant was taken and added to 100 μL of water for sample dilution; finally the plate was sealed, shaked and shaked well, for LC/MS/MS detection.

[1] = In vivo pharmacokinetic study in rats; design: species or system male SD rats
Excerpt: Experimental purposes: To test the drug concentration in plasma of rats at different times after intravenous and intragastric administration of the test compound by LC/MS/MS using male fasted SD rats as the experimental animals. To study the pharmacokinetics of the test compound in rats in vivo and evaluate their pharmacokinetic characteristics.
Experimental animals: 4 healthy male SD rats were divided into 2 groups according to the principle of similar body weight, with 2 mice in each group in IV group and 2 mice in each group in PO group. Animals were purchased from Beijing Vital River Laboratory Animal Co., Ltd.
IV group: Appropriate number of samples were weighed and prepared into 0.5 mg/mL solution respectively, and the mixture was stirred and ultrasonicated to reach a clear state, and the solvent was 15% HP-β-CD.
PO group: Appropriate amount of the solution prepared in IV group was diluted to 0.4 mg/mL with 15% HP-β-CD.
Administration: After fasting overnight, IV group was administered intravenously, and the dosage of the test compound was 1 mg/kg; PO group was administered intragastrically, and the dosage of the test compound was 2 mg/kg.
After the male rats in the intravenous injection group were given the test compound respectively, 200 μL of blood was collected from the jugular vein at 0.0833, 0.25, 0.5, 1, 2, 4, 8, and 24 hours, and placed in a commercialized anticoagulant tube added with EDTA-K2 in advance. After intragastric administration of the test compound, 200 μL of blood was collected from the jugular vein at 0.25, 0.5, 1, 2, 4, 8, 12 and 24 hours, respectively, and placed in a commercialized anticoagulant tube added with EDTA-K2 in advance. After centrifugation (3,200 g, 4° C., 10 minutes), the plasma was collected, transferred to a pre-cooled centrifuge tube, quickly frozen in dry ice, and stored in a refrigerator at −60° C. or lower, until LC-MS/MS analysis. Animals were allowed to eat 4 hours after administration. LC/MS/MS method was used to determine the content of the test compound in the plasma of rats after intravenous and intragastric administration. The linear range of the method was 2.00 to 2000 nM.

[2] = test system: MCF-7 breast cancer cell xenograft; experiment: In vivo efficacy, MCF-7 breast cancer cell xenograft model; design: species or system BALB/c nude mice
Method: The purpose of this experiment was to evaluate the antitumor effect of the compound of the present disclosure on MCF-7 breast cancer cell xenograft BALB/c nude mice (provided by the Experimental Animal Management Department of the Shanghai Institute of Family Planning Sciences, and the number of test animals in each experimental group was 5) model.
Mice were subcutaneously inoculated with 0.36 mg, 60-day slow-release estrogen tablets in the left shoulder three days before inoculation. When the cells were in the logarithmic growth phase, the cells were collected and counted, and the cell concentration was adjusted to 10×10^7 cells/mL, and an equal volume of Matrigel was added to mix evenly and then used for inoculation. Each mouse was subcutaneously inoculated with 0.2 mL of MCF-7 tumor cell suspension (10×10^6) on the right shoulder. On day 9 after tumor cell inoculation, the average tumor volume was 160 mm^3 and the body weight was 22.0 to 23.0 g, which was administered in groups and administered once a day. Tumor volume and weight measurements were performed twice a week after grouping, and tumor proliferation rate (T/C) and tumor growth inhibition rate (TGI) were calculated for the last tumor volume data on the day 21 after grouping, and the antitumor effect of compounds was evaluated by TGI (%) or relative tumor proliferation rate T/C (%). TGI (%), reflecting the tumor growth inhibition rate. TGI (%)=[(1-(average tumor volume at the end of administration of a certain treatment group-average tumor volume at the beginning of administration of this treatment group)/(average tumor volume at the end of treatment in the solvent control group-average tumor volume at the beginning of treatment in this solvent control group)]×100%, relative tumor proliferation rate T/C (%)=TRTV/CRTV×100% (TRTV: average RTV of the treatment group; CRTV: average RTV of the negative control group). The relative tumor volume (RTV) was calculated according to the results of tumor measurement, and the formula was RTV=Vt/V0, wherein V0 was the average tumor volume measured at the time of group administration (i.e., D0), and Vt was the tumor volume at a certain measurement, TRTV and CRTV were taken on the same day.

[3] = male, SD, rat, plasma, iv, i.v. 1 mg/kg
[4] = male, SD, rat, plasma, po, p.o. 2 mg/kg

CYP1A2, sequence (P05177 whole entry): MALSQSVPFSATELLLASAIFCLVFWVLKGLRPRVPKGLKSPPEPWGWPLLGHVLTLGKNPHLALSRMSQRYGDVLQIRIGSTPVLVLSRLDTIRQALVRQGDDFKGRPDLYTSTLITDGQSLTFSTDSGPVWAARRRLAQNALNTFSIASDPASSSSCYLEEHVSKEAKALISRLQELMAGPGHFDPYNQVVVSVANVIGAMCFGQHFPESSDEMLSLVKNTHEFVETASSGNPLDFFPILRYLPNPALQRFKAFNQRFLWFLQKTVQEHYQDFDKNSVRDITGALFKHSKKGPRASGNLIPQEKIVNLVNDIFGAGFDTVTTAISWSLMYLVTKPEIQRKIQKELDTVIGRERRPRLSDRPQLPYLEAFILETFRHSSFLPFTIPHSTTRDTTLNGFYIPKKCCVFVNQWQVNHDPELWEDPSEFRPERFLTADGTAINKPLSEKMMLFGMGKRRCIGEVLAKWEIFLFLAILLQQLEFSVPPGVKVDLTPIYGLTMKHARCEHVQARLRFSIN

## FCCCN1CC(Nc2ccc(C3=C(CC(F)(F)F)CCCc4c3ccc3[nH]nc(F)c43)nc2)C1 [Compound 2]
CYP1A2; human, 10 min
  pIC50: < 4.30
[1]; [3]
  AUC(0-t): 0.493 µM·h
  clearance: 54.6 mL/min/kg
  half-life: 3.62 h
[1]; male, SD, rat, plasma, iv, i.v. 1 mg/kg, read-out: Vdss
  Vd: 15.9 L/kg
[1]; male, SD, rat, plasma, oral, p.o. 2 mg/kg vs i.v. 1 mg/kg
  bioavailability: 24.3%
[1]; [4]
  AUC(0-t): 0.24 µM·h
  Cmax: 39.3 nM
  half-life: 5.8 h
[2]; Day 0, 5 mg/kg once a day
  Tumor volume: 161 mm^3
[2]; Day 4, 5 mg/kg once a day
  Tumor volume: 169 mm^3
[2]; Day 7, 5 mg/kg once a day
  Tumor volume: 182 mm^3
[2]; Day 11, 5 mg/kg once a day
  Tumor volume: 186 mm^3
[2]; Day 14, 5 mg/kg once a day
  Tumor volume: 163 mm^3
[2]; Day 18, 5 mg/kg once a day
  Tumor volume: 133 mm^3
[2]; Day 21, 5 mg/kg once a day
  T/C (%) (Day 21): 12.3%
  TGI (%) (Day 21): 106%
  Tumor volume: 118 mm^3

## FCCCN1CC[C@H](Nc2cnc(C3=C(CC(F)(F)F)CCCc4c3ccc3[nH]nc(F)c43)cn2)C1 [Compound 11A]
CYP1A2
  pIC50: < 4.30
[1]; i.v. 1 mg/kg
  AUC0-last: 0.518 µM·h
  Cl: 53.1 mL/min/kg
  T1/2: 3.19 h
  Vdss: 14.5 L/kg
[1]; p.o. 2 mg/kg
  AUC0-last: 0.601 µM·h
  Cmax: 66.9 nM
  T1/2: 8.96 h
[1]; p.o. 2 mg/kg vs i.v. 1 mg/kg
  F %: 58.1%
[2]; Day 0, 5 mg/kg once a day
  Tumor volume: 160 mm^3
[2]; Day 4, 5 mg/kg once a day
  Tumor volume: 184 mm^3
[2]; Day 7, 5 mg/kg once a day
  Tumor volume: 195 mm^3
[2]; Day 11, 5 mg/kg once a day
  Tumor volume: 200 mm^3
[2]; Day 14, 5 mg/kg once a day
  Tumor volume: 176 mm^3
[2]; Day 18, 5 mg/kg once a day
  Tumor volume: 126 mm^3
[2]; Day 21, 5 mg/kg once a day
  T/C (%) (Day 21): 12.8%
  TGI (%) (Day 21): 107%
  Tumor volume: 112 mm^3
